# Results reported in ChEMBL document CHEMBL3351420, “Liver X receptor (LXR) partial agonists: biaryl pyrazoles and imidazoles displaying a preference for LXRβ” (Bioorg Med Chem Lett, 2015).
# Active and inactive are the calls of the source. The rule behind the calls is not given here.
# System: not listed separately
# Experiment: Plasma concentration in C57BL/6 mouse at 10 mg/kg, po measured at 5 hrs post dose
# Assay type: ADME, organism-based
# Parameters: dose 10 mg/kg, route oral
# Settings: not given
row,Structure (SMILES),concentration at 5 h
1,CC(C)(O)c1cn(-c2ccc(-c3cccc(S(C)(=O)=O)c3)cc2)c(C(C)(C)c2ccccc2Cl)n1 [BMS-779788],200 nM

# System: Mus musculus
# Experiment: Elevation of plasma triglyceride in C57BL/6 mouse at 3 to 10 mg/kg for 7 days measured 24 hrs post last dose relative to control
# Assay type: ADME, organism-based
# Parameters: dose 3-10 mg/kg
# Settings: in vivo
row,Structure (SMILES),Activity
1,CC(C)(O)c1cn(-c2ccc(-c3cccc(S(C)(=O)=O)c3)cc2)c(C(C)(C)c2ccccc2Cl)n1 [BMS-779788],Non-toxic

# Molecular target: Retinoic acid receptor RXR-alpha/oxysterols receptor LXR-beta (Homo sapiens, UniProt P55055)
# Experiment: Binding affinity to LXRbeta-RXRalpha heterodimer (unknown origin) expressed in insect cells by scintillation proximity assay
# Settings: not given
# Retinoic acid receptor RXR-alpha/oxysterols receptor LXR-beta, sequence (P19793 whole entry, one chain of several): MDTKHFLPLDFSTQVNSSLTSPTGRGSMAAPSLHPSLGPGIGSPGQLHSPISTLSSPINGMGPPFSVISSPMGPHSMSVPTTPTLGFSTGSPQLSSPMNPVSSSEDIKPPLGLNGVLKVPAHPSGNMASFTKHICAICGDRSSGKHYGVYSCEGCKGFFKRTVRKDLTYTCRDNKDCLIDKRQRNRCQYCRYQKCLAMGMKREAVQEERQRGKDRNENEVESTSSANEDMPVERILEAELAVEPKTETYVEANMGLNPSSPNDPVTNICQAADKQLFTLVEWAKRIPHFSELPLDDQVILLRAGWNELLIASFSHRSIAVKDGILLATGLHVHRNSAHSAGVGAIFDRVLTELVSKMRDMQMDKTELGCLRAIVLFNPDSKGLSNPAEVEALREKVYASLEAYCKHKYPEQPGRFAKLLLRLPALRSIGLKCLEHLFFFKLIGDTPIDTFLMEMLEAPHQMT
row,Structure (SMILES),Ki
1,CC(C)(O)c1cn(-c2ccc(-c3cccc(S(C)(=O)=O)c3)cc2)c(-c2c(Cl)cccc2Cl)n1,54 nM
2,CS(=O)(=O)c1cccc(-c2cccc(-c3cc(C(F)(F)F)nn3-c3ccccc3Cl)c2)c1,31 nM
3,CS(=O)(=O)c1cccc(-c2ccc(-c3cc(C(F)(F)F)nn3-c3ccccc3Cl)s2)c1,12 nM
4,CC(C)(O)c1cn(-c2ccc(-c3cccc(S(C)(=O)=O)c3)cc2)c(C(C)(C)c2ccccc2Cl)n1 [BMS-779788],14 nM

# System: not listed separately
# Experiment: Plasma concentration in C57BL/6 mouse at 3 mg/kg, po measured at 5 hrs post dose
# Assay type: ADME, organism-based
# Parameters: dose 3 mg/kg, route oral
# Settings: not given
row,Structure (SMILES),concentration at 5 h
1,CC(C)(O)c1cn(-c2ccc(-c3cccc(S(C)(=O)=O)c3)cc2)c(C(C)(C)c2ccccc2Cl)n1 [BMS-779788],50 nM

# System: Mus musculus
# Experiment: Induction of SREBP1c mRNA in C57BL/6 mouse liver at 10 mg/kg for 7 days measured 24 hrs post last dose relative to control
# Assay type: organism-based
# Parameters: dose 10 mg/kg
# Settings: C57BL/6, 24 h, read-out: FC
row,Structure (SMILES),fold induction at 10 mg/kg
1,CC(C)(O)c1cn(-c2ccc(-c3cccc(S(C)(=O)=O)c3)cc2)c(C(C)(C)c2ccccc2Cl)n1 [BMS-779788],2.7

# Molecular target: Liver X receptor (Homo sapiens) (UniProt Q13133+P55055)
# Experiment: Transactivation of LXR in human whole blood assessed as induction of ABCA1 after 4 hrs by SYBR-Green quantitative PCR analysis relative to 1-(2,4-difluorobenzyl)-2-oxo-6-(4-phenoxyphenyl)-4-(trifluoromethyl)-1,2-dihydropyridine-3-carbonitrile
# Settings: not given
row,Structure (SMILES),Efficacy
1,CC(C)(O)c1cn(-c2ccc(-c3cccc(S(C)(=O)=O)c3)cc2)c(-c2c(Cl)cccc2Cl)n1,38%
2,CC(C)(O)c1cn(-c2ccc(-c3cccc(S(C)(=O)=O)c3)cc2)c(C(C)(C)c2ccccc2Cl)n1 [BMS-779788],55%

# System: not listed separately
# Experiment: Drug uptake in mouse liver at 30 mg/kg, po measured at 24 hrs post dose
# Assay type: ADME, organism-based
# Parameters: dose 30 mg/kg, route oral
# Settings: read-out: Drug uptake
row,Structure (SMILES),concentration at 24 h
1,CC(C)(O)c1cn(-c2ccc(-c3cccc(S(C)(=O)=O)c3)cc2)c(-c2c(Cl)cccc2Cl)n1,4400 nM
2,CS(=O)(=O)c1cccc(-c2cccc(-c3cc(C(F)(F)F)nn3-c3ccccc3Cl)c2)c1,1000 nM
3,CC(C)(O)c1cn(-c2ccc(-c3cccc(S(C)(=O)=O)c3)cc2)c(C(C)(C)c2ccccc2Cl)n1 [BMS-779788],< 50 nM

# Molecular target: T1, Oxysterols receptor LXR-beta (Homo sapiens, UniProt P55055)
# T1 sequence (P55055 whole entry): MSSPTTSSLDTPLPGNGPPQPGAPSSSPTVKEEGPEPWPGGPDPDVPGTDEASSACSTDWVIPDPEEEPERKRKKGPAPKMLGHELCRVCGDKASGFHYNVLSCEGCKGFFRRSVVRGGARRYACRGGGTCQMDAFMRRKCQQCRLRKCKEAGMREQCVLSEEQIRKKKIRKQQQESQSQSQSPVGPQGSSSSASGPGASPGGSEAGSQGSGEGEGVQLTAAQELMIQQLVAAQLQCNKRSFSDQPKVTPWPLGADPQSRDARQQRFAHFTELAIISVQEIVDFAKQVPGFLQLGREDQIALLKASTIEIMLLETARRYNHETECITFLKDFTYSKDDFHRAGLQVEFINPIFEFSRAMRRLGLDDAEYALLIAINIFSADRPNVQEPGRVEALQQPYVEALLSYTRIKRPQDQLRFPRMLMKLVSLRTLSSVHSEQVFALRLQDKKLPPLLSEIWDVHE
# Experiment: Transactivation of LXRbeta (unknown origin) expressed in CV1 cells by luciferase reporter gene assay
# Assay type: cell-based, CV-1
# Settings: not given
row,Structure (SMILES),EC50
1,CC(C)(O)c1cn(-c2ccc(-c3cccc(S(C)(=O)=O)c3)cc2)c(-c2c(Cl)cccc2Cl)n1,670 nM
2,CS(=O)(=O)c1cccc(-c2cccc(-c3cc(C(F)(F)F)nn3-c3ccccc3Cl)c2)c1,230 nM
3,CS(=O)(=O)c1cccc(-c2ccc(-c3cc(C(F)(F)F)nn3-c3ccccc3Cl)s2)c1,110 nM
4,CC(C)(O)c1cn(-c2ccc(-c3cccc(S(C)(=O)=O)c3)cc2)c(C(C)(C)c2ccccc2Cl)n1 [BMS-779788],250 nM

# Molecular target: T2, Liver X receptor (Homo sapiens, UniProt Q13133+P55055)
# T2 sequence (Q13133 whole entry): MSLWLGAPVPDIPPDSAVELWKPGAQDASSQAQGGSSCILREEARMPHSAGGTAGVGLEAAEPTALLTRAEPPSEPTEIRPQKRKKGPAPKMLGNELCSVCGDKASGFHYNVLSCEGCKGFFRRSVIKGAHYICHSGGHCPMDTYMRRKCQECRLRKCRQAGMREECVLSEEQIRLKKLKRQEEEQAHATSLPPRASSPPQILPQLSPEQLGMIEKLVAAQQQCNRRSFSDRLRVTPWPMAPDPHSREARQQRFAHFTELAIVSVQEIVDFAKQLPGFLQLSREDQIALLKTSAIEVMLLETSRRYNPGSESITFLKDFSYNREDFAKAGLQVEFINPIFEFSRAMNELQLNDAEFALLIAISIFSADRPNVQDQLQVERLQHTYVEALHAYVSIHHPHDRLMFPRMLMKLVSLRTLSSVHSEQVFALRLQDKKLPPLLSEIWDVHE
# T2 sequence (P55055 whole entry): T1 sequence (P55055 whole entry)
# Experiment: Transactivation of LXR (unknown origin) expressed in human HeLa cells by ABCA1 LXREx3 reporter assay
# Assay type: cell-based
# Settings: not given
row,Structure (SMILES),EC50
1,CC(C)(O)c1cn(-c2ccc(-c3cccc(S(C)(=O)=O)c3)cc2)c(-c2c(Cl)cccc2Cl)n1,140 nM
2,CS(=O)(=O)c1cccc(-c2cccc(-c3cc(C(F)(F)F)nn3-c3ccccc3Cl)c2)c1,38 nM
3,CS(=O)(=O)c1cccc(-c2ccc(-c3cc(C(F)(F)F)nn3-c3ccccc3Cl)s2)c1,9 nM
4,CC(C)(O)c1cn(-c2ccc(-c3cccc(S(C)(=O)=O)c3)cc2)c(C(C)(C)c2ccccc2Cl)n1 [BMS-779788],33 nM

# System: not listed separately
# Experiment: Plasma concentration in mouse at 30 mg/kg, po measured at 24 hrs post dose
# Assay type: ADME, organism-based
# Parameters: dose 30 mg/kg, route oral
# Settings: not given
row,Structure (SMILES),concentration at 24 h
1,CC(C)(O)c1cn(-c2ccc(-c3cccc(S(C)(=O)=O)c3)cc2)c(-c2c(Cl)cccc2Cl)n1,600 nM
2,CS(=O)(=O)c1cccc(-c2cccc(-c3cc(C(F)(F)F)nn3-c3ccccc3Cl)c2)c1,300 nM
3,CC(C)(O)c1cn(-c2ccc(-c3cccc(S(C)(=O)=O)c3)cc2)c(C(C)(C)c2ccccc2Cl)n1 [BMS-779788],40 nM

# Molecular target: Retinoic acid receptor RXR-alpha/oxysterols receptor LXR-alpha (Homo sapiens, UniProt Q13133)
# Experiment: Binding affinity to LXRalpha-RXRalpha heterodimer (unknown origin) expressed in insect cells by scintillation proximity assay
# Settings: not given
# Retinoic acid receptor RXR-alpha/oxysterols receptor LXR-alpha, sequence (P19793 whole entry, one chain of several): as the sequence (P19793 whole entry, one chain of several) above
row,Structure (SMILES),Ki
1,CC(C)(O)c1cn(-c2ccc(-c3cccc(S(C)(=O)=O)c3)cc2)c(-c2c(Cl)cccc2Cl)n1,2500 nM
2,CS(=O)(=O)c1cccc(-c2cccc(-c3cc(C(F)(F)F)nn3-c3ccccc3Cl)c2)c1,300 nM
3,CS(=O)(=O)c1cccc(-c2ccc(-c3cc(C(F)(F)F)nn3-c3ccccc3Cl)s2)c1,68 nM
4,CC(C)(O)c1cn(-c2ccc(-c3cccc(S(C)(=O)=O)c3)cc2)c(C(C)(C)c2ccccc2Cl)n1 [BMS-779788],68 nM

# System: not listed separately
# Experiment: Plasma concentration in mouse at 30 mg/kg, po measured at 4 hrs post dose
# Assay type: ADME, organism-based
# Parameters: dose 30 mg/kg, route oral
# Settings: not given
row,Structure (SMILES),concentration at 4 h
1,CC(C)(O)c1cn(-c2ccc(-c3cccc(S(C)(=O)=O)c3)cc2)c(-c2c(Cl)cccc2Cl)n1,18500 nM
2,CS(=O)(=O)c1cccc(-c2cccc(-c3cc(C(F)(F)F)nn3-c3ccccc3Cl)c2)c1,6600 nM
3,CC(C)(O)c1cn(-c2ccc(-c3cccc(S(C)(=O)=O)c3)cc2)c(C(C)(C)c2ccccc2Cl)n1 [BMS-779788],5400 nM

# System: Mus musculus
# Experiment: Elevation of hepatic triglyceride in C57BL/6 mouse at 3 to 30 mg/kg for 7 days measured 24 hrs post last dose relative to control
# Assay type: ADME, organism-based
# Parameters: dose 3-30 mg/kg
# Settings: in vivo
row,Structure (SMILES),Activity
1,CC(C)(O)c1cn(-c2ccc(-c3cccc(S(C)(=O)=O)c3)cc2)c(C(C)(C)c2ccccc2Cl)n1 [BMS-779788],Non-toxic

# System: Mus musculus
# Experiment: Elevation of plasma triglyceride in C57BL/6 mouse at 30 mg/kg for 7 days measured 24 hrs post last dose relative to control
# Assay type: ADME, organism-based
# Parameters: dose 30 mg/kg
# Settings: in vivo
row,Structure (SMILES),Activity
1,CC(C)(O)c1cn(-c2ccc(-c3cccc(S(C)(=O)=O)c3)cc2)c(C(C)(C)c2ccccc2Cl)n1 [BMS-779788],74%

# Molecular target: T2, Liver X receptor
# Experiment: Transactivation of LXR in human whole blood assessed as induction of ABCA1 after 4 hrs by SYBR-Green quantitative PCR analysis
# Settings: not given
row,Structure (SMILES),EC50
1,CC(C)(O)c1cn(-c2ccc(-c3cccc(S(C)(=O)=O)c3)cc2)c(-c2c(Cl)cccc2Cl)n1,7000 nM
2,CC(C)(O)c1cn(-c2ccc(-c3cccc(S(C)(=O)=O)c3)cc2)c(C(C)(C)c2ccccc2Cl)n1 [BMS-779788],1200 nM

# System: Mus musculus
# Experiment: Induction of ABCG1 mRNA induction in C57BL/6 mouse blood cells at 3 to 30 mg/kg for 7 days measured 5 hrs post last dose relative to control
# Assay type: functional, organism-based
# Settings: not given
row,Structure (SMILES),Activity
1,CC(C)(O)c1cn(-c2ccc(-c3cccc(S(C)(=O)=O)c3)cc2)c(C(C)(C)c2ccccc2Cl)n1 [BMS-779788],Active

# System: not listed separately
# Experiment: Plasma concentration in C57BL/6 mouse at 30 mg/kg, po measured at 5 hrs post dose
# Assay type: ADME, organism-based
# Parameters: dose 30 mg/kg, route oral
# Settings: not given
row,Structure (SMILES),concentration at 5 h
1,CC(C)(O)c1cn(-c2ccc(-c3cccc(S(C)(=O)=O)c3)cc2)c(C(C)(C)c2ccccc2Cl)n1 [BMS-779788],2000 nM

# System: Mus musculus
# Experiment: Elevation of hepatic triglyceride in C57BL/6 mouse at 30 mg/kg for 7 days measured 24 hrs post last dose relative to control
# Assay type: ADME, organism-based
# Parameters: dose 30 mg/kg
# Settings: in vivo
row,Structure (SMILES),Activity
1,CC(C)(O)c1cn(-c2ccc(-c3cccc(S(C)(=O)=O)c3)cc2)c(C(C)(C)c2ccccc2Cl)n1 [BMS-779788],Non-toxic

# Molecular target: T3, Oxysterols receptor LXR-alpha (Homo sapiens, UniProt Q13133)
# T3 sequence (Q13133 whole entry): T2 sequence (Q13133 whole entry)
# Experiment: Transactivation of LXRalpha (unknown origin) expressed in CV1 cells by luciferase reporter gene assay
# Assay type: cell-based, CV-1
# Settings: not given
row,Structure (SMILES),EC50
1,CC(C)(O)c1cn(-c2ccc(-c3cccc(S(C)(=O)=O)c3)cc2)c(-c2c(Cl)cccc2Cl)n1,> 10000 nM
2,CS(=O)(=O)c1cccc(-c2cccc(-c3cc(C(F)(F)F)nn3-c3ccccc3Cl)c2)c1,320 nM
3,CS(=O)(=O)c1cccc(-c2ccc(-c3cc(C(F)(F)F)nn3-c3ccccc3Cl)s2)c1,140 nM
4,CC(C)(O)c1cn(-c2ccc(-c3cccc(S(C)(=O)=O)c3)cc2)c(C(C)(C)c2ccccc2Cl)n1 [BMS-779788],230 nM

# System: Mus musculus
# Experiment: Induction of ABCA1 mRNA induction in C57BL/6 mouse blood cells at 3 to 30 mg/kg for 7 days measured 5 hrs post last dose relative to control
# Assay type: functional, organism-based
# Settings: not given
row,Structure (SMILES),Activity
1,CC(C)(O)c1cn(-c2ccc(-c3cccc(S(C)(=O)=O)c3)cc2)c(C(C)(C)c2ccccc2Cl)n1 [BMS-779788],Active

# System: Mus musculus
# Experiment: Induction of SREBP1c mRNA in C57BL/6 mouse liver at 30 mg/kg for 7 days measured 24 hrs post last dose relative to control
# Assay type: organism-based
# Parameters: dose 30 mg/kg
# Settings: C57BL/6, 24 h, read-out: FC
row,Structure (SMILES),fold induction at 30 mg/kg
1,CC(C)(O)c1cn(-c2ccc(-c3cccc(S(C)(=O)=O)c3)cc2)c(C(C)(C)c2ccccc2Cl)n1 [BMS-779788],3.5
